83 compounds from publication PMC12040169 (PLOS Biology, 2025) can be followed below.

One data set can be described thus: in vitro. As to conditions: human, hela cells, % viability.
Turning to `CCOC(=O)C1(Cc2ccccc2-c2ccncc2)CCNCC1` [CBK282297], the viability at 28.5 h, 10 µM was found to be 88.8%. The same measure, in the same setting: then `CCn1c(=O)n(CC(=O)N(C)C)c2cccnc21` [CBK282299], with 89.1%. Turning to `O=C(NCCn1nc2c(cc1=O)CCCCC2)c1ccccc1F` [CBK282300], the viability at 28.5 h, 10 µM was determined as 89.3%. Same read-out and setting: the figure for `CC(C)(C)OC(=O)N1CCC[C@H]([C@H](O)c2cccs2)C1` [CBK282301] is 102%; for `C[C@@H](Cn1nnc2ccccc21)NC(=O)Cc1ccccc1F` [CBK282305] it is 86.1%.

Regarding `Cc1cc(C(=O)NC2CCCc3c2cnn3-c2ccc(F)cc2)on1` (centres unmarked) [CBK282310], the viability at 28.5 h, 10 µM was 108%. Turning to `O=C1NCC(C2CCN(Cc3ccccc3)CC2)Oc2ccccc21` (centres unmarked) [CBK282314], the viability at 28.5 h, 10 µM came out at 85.9%.

As for `CC(C)C(=O)N1CCC[C@@H](Cn2nc(-c3cccs3)ccc2=O)C1` [CBK282317], the viability at 28.5 h, 10 µM was 96.5%.

For `CC(NC(=O)c1ncoc1-c1ccc(F)cc1)c1ccncc1` (centres unmarked) [CBK282319], the viability at 28.5 h, 10 µM worked out at 100%.

As for `CC(C)[C@@H](Cn1nc(C2CC2)ccc1=O)NC(=O)c1ccco1` [CBK282321], the viability at 28.5 h, 10 µM is 88.3%. With `O=C(c1ccc(F)cc1)[C@H]1CCCN(C(=O)c2n[nH]c3c2CCC3)C1` [CBK282322], the viability at 28.5 h, 10 µM stood at 86.7%.

As to `Fc1cccc(-c2nc3cnccn3c2NCc2ccco2)c1` [CBK282323], the viability at 28.5 h, 10 µM was 93.5%. For the compound `COc1ccc(CNC(=O)[C@H]2C=CCN2C(=O)c2cccs2)cc1` [CBK282325], the viability at 28.5 h, 10 µM turned out to be 103%.

`COc1ccc(CNC(=O)[C@H]2C=CCN2C(=O)C2CC2)cc1` [CBK282326]: the viability at 28.5 h, 10 µM amounted to 109%. Still for that read-out and setting: the figure for `Cc1nc2c(c(=O)[nH]1)CN(Cc1c[nH]c3ccccc13)CC2` [CBK282327] is 102%; for `CCS(=O)(=O)N1CC2C3c4ccccc4C(c4ccccc43)C2C1` (centres unmarked) [CBK282328] it is 98.5%; for `O=C(C1CCCC1)N1CCc2nc(-c3ccccc3)[nH]c(=O)c2C1` [CBK282331] it is 99%. The same measure, in the same setting: the figure for `Fc1ccccc1-c1nc2cnccn2c1NCc1cccs1` [CBK282332] is 90.3%.

Turning to `CC(C)[C@@H](Cn1nnc2ccccc21)NC(=O)c1ccco1` [CBK282335], the viability at 28.5 h, 10 µM came out at 108%. The same measure, in the same setting: the figure for `C#CCNC(=O)C1CCCN(c2nc3ccccc3n2C)C1` (centres unmarked) [CBK282336] is 89.6%; for `COc1ccc(-n2ncc3c2CC(C)(C)CC3NC(=O)C2CC2)cc1` (centres unmarked) [CBK282337] it is 91.1%. Same read-out and setting: then `Cc1nc2c(c(=O)[nH]1)CCN(Cc1cc(C)n(C3CC3)c1C)C2` [CBK282338], with 89.2%; and `O=C(C1=Cc2ccccc2OC1)N1CCC(c2ccncc2)CC1` [CBK282339], with 104%. Same read-out and setting: then `CCn1cc(C(=O)NC2CC3(CCCC3)Oc3ccccc32)c(C)n1` (centres unmarked) [CBK282340], with 91.2%; and `CC(C)(C)C(=O)NCCn1nc(-c2cccs2)oc1=O` [CBK282344], with 110%. Take `O=C(NCCn1nc(-c2cccs2)oc1=O)C1CCCC1` [CBK282345]: the viability at 28.5 h, 10 µM amounted to 105%.

On to `CCN(CC)C(=O)Cn1c(=O)n(CC)c2ncccc21` [CBK282347], for which the viability at 28.5 h, 10 µM was 107%. The same measure, in the same setting: the figure for `C=CCNC(=O)[C@H]1C=CCN1C(=O)Nc1ccccc1Cl` [CBK282348] is 99%.

Consider `CC(C)C(=O)N1CCC(n2nc(C3CC3)ccc2=O)CC1` [CBK282351], for which the viability at 28.5 h, 10 µM is 104%. The same measure, in the same setting: the figure for `O=C(NCc1ccccn1)c1ncoc1-c1ccc(F)cc1` [CBK282352] is 79.6%; for `O=C(NCc1ccncc1)c1ncoc1-c1ccc(F)cc1` [CBK282354] it is 83.8%. Still for that read-out and setting: then `O=C(NCCn1cccn1)c1ncoc1-c1ccc(F)cc1` [CBK282355], with 91.5%; and `CC(NC(=O)c1ncoc1-c1ccc(F)cc1)c1cccnc1` (centres unmarked) [CBK282358], with 103%. Consider `Cc1nn(C)c(C)c1NC(=O)c1ncoc1-c1ccc(F)cc1` [CBK282359], for which the viability at 28.5 h, 10 µM came to 87.7%. On the same count and under the same terms, then `CCn1nc(C)c(NC(=O)c2ncoc2-c2ccc(F)cc2)c1C` [CBK282360], with 88%; and `CCCn1nc(C)cc1NC(=O)c1ncoc1-c1ccc(F)cc1` [CBK282361], with 88.7%. On the same count and under the same terms, the figure for `O=C1NC2=C(C(=O)N(CCN3CCCC3)C2)C(c2cccc(F)c2)N1` (centres unmarked) [CBK282365] is 105%; for `Cc1nn(C)cc1C(=O)N1CCCC1c1nc2ccccc2[nH]1` (centres unmarked) [CBK282371] it is 84.7%.

As for `Cn1c(N2CCCC(C(N)=O)C2)nc2ccccc21` (centres unmarked) [CBK282372], the viability at 28.5 h, 10 µM amounted to 105%. Still for that read-out and setting: then `Cc1ccnn1CCC(=O)N1CCCCC1c1nc2ccccc2[nH]1` (centres unmarked) [CBK282374], with 105%. Same read-out and setting: the figure for `C=CCn1c(C)c(CN2CCc3nc(C)[nH]c(=O)c3C2)c2ccccc21` [CBK282375] is 97.3%. On the same count and under the same terms, then `C=CCn1cc(CN2CCc3nc(C)[nH]c(=O)c3C2)c2ccccc21` [CBK282376], with 85.9%; and `CCc1c(C)sc2ncn(C3CCN(C(=O)C(C)C)CC3)c(=O)c12` [CBK282377], with 81.1%.

`CC1CN(C(=O)c2ncoc2-c2ccc(F)cc2)CC(C)O1` (centres unmarked) [CBK282379]: the viability at 28.5 h, 10 µM turned out to be 90%. On the same count and under the same terms, the figure for `O=C(CC1CCCC1)NCCn1nc(-c2cccs2)oc1=O` [CBK282386] is 87.2%; for `CCOC(=O)Cn1ncc2c3sc(C)cc3n(C)c2c1=O` [CBK282388] it is 96.2%.

For the compound `O=C(CCn1ncc2ccccc21)N1CCC(c2ccncc2)CC1` [CBK282395], the viability at 28.5 h, 10 µM was 82%. Still for that read-out and setting: then `CC(C(=O)N1CCC(O)(c2ccccn2)CC1)c1ccccc1` (centres unmarked) [CBK282396], with 102%; and `O=C(c1csc2c1CCCC2)N1CCC(O)(c2ccccn2)CC1` [CBK282397], with 107%. Still for that read-out and setting: then `CC(=O)N1CCCN(C(=O)c2ncoc2-c2ccc(F)cc2)CC1` [CBK282398], with 85.2%; and `O=C(c1ncoc1-c1ccc(F)cc1)N1CCN2CCCC2C1` (centres unmarked) [CBK282399], with 90.1%. In the case of `C=CCNC(=O)C1CN(C)CC12CCc1ccccc1C(=O)N2` (centres unmarked) [CBK282401], the viability at 28.5 h, 10 µM is 83%. On the same count and under the same terms, the figure for `O=C(NCCCn1ccnc1)c1ncoc1-c1cccs1` [CBK282404] is 92.7%; for `Cc1sc2nc(C(C)C)n(C3CCNCC3)c(=O)c2c1C` [CBK282407] it is 100%; for `CC(NC(=O)c1ncoc1-c1ccccc1Cl)c1ccccn1` (centres unmarked) [CBK282409] it is 94.8%. Still for that read-out and setting: the figure for `Cc1c(C(=O)N2CCC(c3ccncc3)CC2)oc2ccccc12` [CBK282413] is 109%. On the same count and under the same terms, the figure for `Cc1nc2c(c(=O)[nH]1)CN(C1CCCCC1)CC2` [CBK282416] is 82.2%.

Turning to `Cc1cccc(-c2ocnc2C(=O)NCCCn2ccnc2)c1` [CBK282418], the viability at 28.5 h, 10 µM is 80.1%. As for `CCn1c(N2CCCC(C(=O)NC3CC3)C2)nc2ccccc21` (centres unmarked) [CBK282419], the viability at 28.5 h, 10 µM came out at 106%. Same read-out and setting: the figure for `O=C(NC1CC2(CCCC2)Oc2ccccc21)C1CCCO1` (centres unmarked) [CBK282420] is 110%; for `O=C(C1CCCC1)N1CCC(n2nc(-c3cccs3)oc2=O)CC1` [CBK282424] it is 87.5%; for `O=C(c1cc(C2CC2)on1)N1CCn2cc(C(F)(F)F)nc2C1` [CBK282425] it is 85.4%.

With `Cc1nc2cccnc2n1C1CCN(C(=O)C(C)(C)C)CC1` [CBK282426], the viability at 28.5 h, 10 µM was found to be 89.2%. On the same count and under the same terms, then `Cc1cccc(-c2ocnc2C(=O)NC(C)c2ccccn2)c1` (centres unmarked) [CBK282427], with 87.4%. Turning to `Cc1cc(C(=O)N2CCn3cc(C(F)(F)F)nc3C2)on1` [CBK282430], the viability at 28.5 h, 10 µM came out at 101%.

In the case of `Cc1noc(C)c1C(=O)N1CCn2cc(C(F)(F)F)nc2C1` [CBK282431], the viability at 28.5 h, 10 µM came out at 90.2%. The same measure, in the same setting: then `COc1ccc2cc3c(nc2c1)OC(=O)N(CC1CC1)C3` [CBK282432], with 86.8%; and `O=C(CN1C(=O)[C@@H]2CCCN2C(=O)c2ccccc21)N1CCCC1` [CBK282434], with 104%.

With `Cc1csc(C(Cc2ccsc2)NCC2=CCCOC2)n1` (centres unmarked) [CBK282439], the viability at 28.5 h, 10 µM is 101%. On the same count and under the same terms, the figure for `CC(Cc1cccs1)NC(=O)c1cccc(-n2cnnc2)c1` (centres unmarked) [CBK282443] is 102%; for `Cc1ccc2n1CCN(C(=O)c1cccc(-n3cnnc3)c1)C2C(C)C` (centres unmarked) [CBK282444] it is 105%; for `CC(Cc1cccs1)NC(=O)c1cc(-c2ccccn2)n[nH]1` (centres unmarked) [CBK282446] it is 104%. On to `Cc1ccc2n1CCN(C(=O)c1cc(-c3ccccn3)n[nH]1)C2C(C)C` (centres unmarked) [CBK282447], for which the viability at 28.5 h, 10 µM amounted to 101%. The same measure, in the same setting: then `O=C(NC1CC1)c1ccc(-n2cccn2)c(C#Cc2cccnc2)c1` [CBK282449], with 107%. Still for that read-out and setting: the figure for `O=C(NCCN1CCC(O)(c2cccc(F)c2)CC1)c1cccs1` [CBK282450] is 112%; for `O=C(NCCN1CCC(O)(c2cccc(F)c2)CC1)C1CC=CCC1` (centres unmarked) [CBK282451] it is 101%; for `O=C(Cn1c(-c2cccs2)cc2cccnc21)N1CCOCC1` [CBK282452] it is 101%.

For `O=C(Cn1c(-c2cccs2)cc2cccnc21)N1CCCC1` [CBK282453], the viability at 28.5 h, 10 µM turned out to be 83%. Same read-out and setting: the figure for `O=C(Cn1c(-c2cccs2)cc2cccnc21)NCc1ccncc1` [CBK282456] is 104%; for `O=C(Cn1c(-c2cccs2)cc2cccnc21)NCc1cccnc1` [CBK282457] it is 105%; for `O=C(Cn1c(-c2cccs2)cc2cccnc21)N1CCC(O)CC1` [CBK282458] it is 113%.

With `Cc1cc(C(=O)NC2CCCOC2)c2cccc(Cl)c2n1` (centres unmarked) [CBK282459], the viability at 28.5 h, 10 µM came to 95.3%.

The same data set, now with this note: human, hela cells, % viability, bulk resorufin, single well.
As to `CC[C@H](N)Cn1nc(-c2cccs2)oc1=O` [CBK282393], the viability at 28.5 h, 10 µM turned out to be 82.6%.
